Where “and” joins values, the source holds several entries; their conditions need not be identical. Equal values may be shown once.
System: nasal cilia
Test: nasal ciliary beat frequency (CBF), whole field analysis over time
Type: cell-based
Parameters: Mean CBF (WFA): unit: Hz
Experimental: The ATP concentration inside the cell is typically 1-10 millimolar (mM). We started with an ATP concentration of 1 mg/ml based on literature data and from testing done by Dr. James Palmer at University of Pennsylvania on ATP concentration for increasing nasal ciliary beat frequency. […] 1 mg/ml from the below charts=1 mg/ml=1 gram per liter=1/507 g/mol=2 mM. Most intracellular ATP concentrations in animals fall within the range of 0.5-10 mM. [table]

[1] = Plate 1, elapsed 0:00:00, treatment of plate not stated
[2] = Plate 2, elapsed 0:00:00, ATP 1 mg/ml
[3] = Plate 2, elapsed 0:00:10, ATP 1 mg/ml
[4] = Plate 2, elapsed 0:00:30, ATP 1 mg/ml
[5] = Plate 2, elapsed 0:00:40, ATP 1 mg/ml
[6] = Plate 2, elapsed 0:00:50, ATP 1 mg/ml
[7] = Plate 2, elapsed 0:01:00, ATP 1 mg/ml
[8] = Plate 2, elapsed 0:01:10, ATP 1 mg/ml
[9] = Plate 2, elapsed 0:01:20, ATP 1 mg/ml
[10] = Plate 2, elapsed 0:01:30, ATP 1 mg/ml
[11] = Plate 2, elapsed 0:01:40, ATP 1 mg/ml
[12] = Plate 2, elapsed 0:01:50, ATP 1 mg/ml
[13] = Plate 2, elapsed 0:02:00, ATP 1 mg/ml
[14] = Plate 2, elapsed 0:02:10, ATP 1 mg/ml
[15] = Plate 2, elapsed 0:02:20, ATP 1 mg/ml
[16] = Plate 2, elapsed 0:02:30, ATP 1 mg/ml
[17] = Plate 2, elapsed 0:02:40, ATP 1 mg/ml
[18] = Plate 2, elapsed 0:02:50, ATP 1 mg/ml
[19] = Plate 2, elapsed 0:03:00, ATP 1 mg/ml
[20] = Plate 2, elapsed 0:03:10, ATP 1 mg/ml
[21] = Plate 2, elapsed 0:03:20, ATP 1 mg/ml
[22] = Plate 2, elapsed 0:03:30, ATP 1 mg/ml
[23] = Plate 2, elapsed 0:03:40, ATP 1 mg/ml
[24] = Plate 2, elapsed 0:03:50, ATP 1 mg/ml
[25] = Plate 2, elapsed 0:04:00, ATP 1 mg/ml
[26] = Plate 2, elapsed 0:04:10, ATP 1 mg/ml
[27] = Plate 2, elapsed 0:04:20, ATP 1 mg/ml
[28] = Plate 2, elapsed 0:04:30, ATP 1 mg/ml
[29] = Plate 2, elapsed 0:04:40, ATP 1 mg/ml
[30] = Plate 2, elapsed 0:04:50, ATP 1 mg/ml
[31] = Plate 2, elapsed 0:05:00, ATP 1 mg/ml
[32] = Plate 2, elapsed 0:05:10, ATP 1 mg/ml
[33] = Plate 2, elapsed 0:05:20, ATP 1 mg/ml
[34] = Plate 2, elapsed 0:05:30, ATP 1 mg/ml
[35] = Plate 2, elapsed 0:05:40, ATP 1 mg/ml
[36] = Plate 2, elapsed 0:05:50, ATP 1 mg/ml
[37] = Plate 2, elapsed 0:06:00, ATP 1 mg/ml
[38] = Plate 2, elapsed 0:06:10, ATP 1 mg/ml
[39] = Plate 2, elapsed 0:06:20, ATP 1 mg/ml
[40] = Plate 2, elapsed 0:06:30, ATP 1 mg/ml
[41] = Plate 2, elapsed 0:06:40, ATP 1 mg/ml
[42] = Plate 2, elapsed 0:06:50, ATP 1 mg/ml
[43] = Plate 2, elapsed 0:07:00, ATP 1 mg/ml
[44] = Plate 2, elapsed 0:07:10, ATP 1 mg/ml
[45] = Plate 2, elapsed 0:07:20, ATP 1 mg/ml
[46] = Plate 2, elapsed 0:07:30, ATP 1 mg/ml
[47] = Plate 2, elapsed 0:07:40, ATP 1 mg/ml
[48] = Plate 2, elapsed 0:07:50, ATP 1 mg/ml
[49] = Plate 2, elapsed 0:08:00, ATP 1 mg/ml

## Nc1ncnc2c1ncn2[C@@H]1O[C@H](COP(=O)(O)OP(=O)(O)OP(=O)(O)O)[C@@H](O)[C@H]1O [ATP, adenosine triphosphate]
[1]
  Active Area: 82.86% and 60.42% and 53.54%
  Mean CBF (WFA): 6.75 and 6.14 and 5.59
[2]
  Active Area: 22.19%
  Mean CBF (WFA): 8.06
[3]
  Active Area: 44.1%
  Mean CBF (WFA): 7.41
[4]
  Active Area: 49.49%
  Mean CBF (WFA): 7.42
[5]
  Active Area: 49.6%
  Mean CBF (WFA): 7.5
[6]
  Active Area: 48.61%
  Mean CBF (WFA): 7.55
[7]
  Active Area: 42.47%
  Mean CBF (WFA): 7.66
[8]
  Active Area: 43.64%
  Mean CBF (WFA): 7.75
[9]
  Active Area: 45.62%
  Mean CBF (WFA): 7.82
[10]
  Active Area: 36.91%
  Mean CBF (WFA): 7.92
[11]
  Active Area: 40.43%
  Mean CBF (WFA): 7.99
[12]
  Active Area: 43.13%
  Mean CBF (WFA): 7.95
[13]
  Active Area: 41.96%
  Mean CBF (WFA): 8.01
[14]
  Active Area: 43.36%
  Mean CBF (WFA): 8
[15]
  Active Area: 42.03%
  Mean CBF (WFA): 8.03
[16]
  Active Area: 15.64%
  Mean CBF (WFA): 7.96
[17]
  Active Area: 37.46%
  Mean CBF (WFA): 8.02
[18]
  Active Area: 40.07%
  Mean CBF (WFA): 8.02
[19]
  Active Area: 38.29%
  Mean CBF (WFA): 8.08
[20]
  Active Area: 38.85%
  Mean CBF (WFA): 8.1
[21]
  Active Area: 37.75%
  Mean CBF (WFA): 8.09
[22]
  Active Area: 36.48%
  Mean CBF (WFA): 8.07
[23]
  Active Area: 37.41%
  Mean CBF (WFA): 8.07
[24]
  Active Area: 36.73%
  Mean CBF (WFA): 8.12
[25]
  Active Area: 37.22%
  Mean CBF (WFA): 8.11
[26]
  Active Area: 38.13%
  Mean CBF (WFA): 8.09
[27]
  Active Area: 36.96%
  Mean CBF (WFA): 8.12
[28]
  Active Area: 36.02%
  Mean CBF (WFA): 8.12
[29]
  Active Area: 36.21%
  Mean CBF (WFA): 8.06
[30]
  Active Area: 34.77%
  Mean CBF (WFA): 8.05
[31]
  Active Area: 37.11%
  Mean CBF (WFA): 8.12
[32]
  Active Area: 34.86%
  Mean CBF (WFA): 8.08
[33]
  Active Area: 35.53%
  Mean CBF (WFA): 8.09
[34]
  Active Area: 36.15%
  Mean CBF (WFA): 8.22
[35]
  Active Area: 38.41%
  Mean CBF (WFA): 8.15
[36]
  Active Area: 38.05%
  Mean CBF (WFA): 8.13
[37]
  Active Area: 39.37%
  Mean CBF (WFA): 8.17
[38]
  Active Area: 39.15%
  Mean CBF (WFA): 8.14
[39]
  Active Area: 37.86%
  Mean CBF (WFA): 8.15
[40]
  Active Area: 31.72%
  Mean CBF (WFA): 8.11
[41]
  Active Area: 35.94%
  Mean CBF (WFA): 8.21
[42]
  Active Area: 36.95%
  Mean CBF (WFA): 8.22
[43]
  Active Area: 28.86%
  Mean CBF (WFA): 8.23
[44]
  Active Area: 36.92%
  Mean CBF (WFA): 8.2
[45]
  Active Area: 38.3%
  Mean CBF (WFA): 8.24
[46]
  Active Area: 37.18%
  Mean CBF (WFA): 8.25
[47]
  Active Area: 36.54%
  Mean CBF (WFA): 8.23
[48]
  Active Area: 35.67%
  Mean CBF (WFA): 8.22
[49]
  Active Area: 37.37%
  Mean CBF (WFA): 8.17

Source: patent US20170252298A1, “Performance-Enhancing Nasal Irrigation” (Backed-by-Science, Inc., priority 2014, published 2017)
